Reference: patent US8299296B2, “Spiro compounds and pharmaceutical use thereof” (Japan Tobacco Inc., priority 2007, dated 2012)
pEC50: −log10 of the molar value. Where a name gives a salt, the structure may show the parent alone.

Target: T1, human GPR40 (Homo sapiens, UniProt O14842)
T1 construct: expressed in transfected cells
Experiment: Ca2+ mobilization (FLIPR) in a stable GPR40-expressing cell; GPR40 agonist activity
Format: cell-based
Conditions: compound concentration corresponding to 50% PosiC, 100% = intracellular calcium level induced by 80 μM palmitic acid
Protocol: Evaluation of effect of test compounds on Ca^2+ mobilization by using a stable GPR40-expressing cell A stable human GPR40-expressing HEK293 cell was used. A cell suspension was prepared such that the above-mentioned cells were present at 6×10^5 cells/mL in a cell culture medium (D-MEM (Nikken Bio Medical Laboratory) supplemented with 10% (v/v) fetal bovine serum (Biowest) and 1% (v/v) penicillin-streptomycin solution (Invitrogen)). The cell suspension was plated in a 384-well plate (poly-D-lysine coated plate; Falcon) in a volume of 25 μl/well, and the plate was incubated at 37° C. in an atmosphere of 5% CO2 overnight. Each test compound was added to the cell at each concentration as below, and then the change in intracellular calcium level was measured by FLIPR^TETRA (Molecular Devices). Before the FLIPR assay, the following preparative solutions were prepared. First, an assay buffer was prepared for use in the preparation of a fluorescent dye solution and a diluent buffer solution. The assay buffer was prepared by adding 1M HEPES solution (Invitrogen) to Hanks' Balanced Salt Solution (Invitrogen), followed by adjusting the pH to 7.4 with 1M NaOH (Nacalai Tesque). Next, the fluorescent dye solution and the diluent buffer solution were prepared. The fluorescent dye solution was prepared in accordance with the instruction manual attached to Fluo-4NW calcium assay kit (Invitrogen), followed by addition of bovine serum albumin (Sigma) to a final concentration of 0.1% (w/v). The diluent buffer solution was prepared by adding bovine serum albumin (Sigma) to the assay buffer to give a final concentration of 0.1% (w/v). After removing a medium supernatant from the cell culture plate incubated overnight, the fluorescent dye solution was added to the plate in a volume of 25 μl/well. The plate was incubated at 37° C. in an atmosphere of 5% CO2 for 90 minutes to promote the fluorescent dye uptake in the cell. Meanwhile, the test compounds (i.e., the compounds prepared in Examples) dissolved in dimethyl sulfoxide (DMSO; Nacalai Tesque) were diluted with the diluent buffer solution, to prepare each compound solution at each concentration. In addition, a palmitic acid solution was prepared as a positive control solution (hereinafter abbreviated as PosiC). A 40 μl aliquot of each sample solution prepared as above was added to each well of a 384-well polypropylene plate to prepare a compound plate. Finally, after the sufficient uptake of the fluorescent dye in the cell, the cell plate and the compound plate were set to FLIPR^TETRA. After the above pretreatment, the change in intracellular calcium level was measured by FLIPR^TETRA upon addition of 25 μl of each test compound solution at each concentration. The GPR40 agonist activity of each test compound at each concentration was determined as a relative activity level (% PosiC) with the intracellular calcium level induced by 80 μM palmitic acid (a GPR40 agonist) set to 100%. Next, each compound concentration corresponding to 50% PosiC was calculated based on the % PosiC value, to compare between agonist activities of the test compounds. In the tables, “++++” indicates 0.01 μM or more but less than 0.1 μM, “+++” indicates 0.1 μM or more but less than 1 μM, “++” indicates 1 μM or more but less than 10 μM, and “+” indicates 10 μM or more for 50% posiC value. In the tables, “N.T.” indicates “not tested”.

T1 sequence (O14842 whole entry): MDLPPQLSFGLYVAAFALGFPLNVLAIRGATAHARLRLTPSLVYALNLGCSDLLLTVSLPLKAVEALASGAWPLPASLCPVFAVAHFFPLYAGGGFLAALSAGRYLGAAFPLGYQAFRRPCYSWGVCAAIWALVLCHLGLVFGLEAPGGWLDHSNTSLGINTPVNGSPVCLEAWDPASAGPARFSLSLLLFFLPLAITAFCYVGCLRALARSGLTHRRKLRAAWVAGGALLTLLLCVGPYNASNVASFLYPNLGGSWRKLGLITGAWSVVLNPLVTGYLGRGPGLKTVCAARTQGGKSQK

| pEC50 | Structure (SMILES) |
| --- | --- |
| 5.00 to 6.00 | O=C(O)CCc1ccc(OCC2=CC3(CCCC3)CCC2)cc1Cl [Example 108, 3-[2-chloro-4-(spiro[4.5]dec-6-en-7-ylmethoxy)-phenyl]-propionic acid] |
| 5.00 to 6.00 | O=C(O)CCc1ccc(OCC2=CC3(CCC3)CC2)cc1 [Example 117, 3-[4-(spiro[3.4]oct-5-en-6-ylmethoxy)-phenyl]-propionic acid] |
| 5.00 to 6.00 | CC#C[C@@H](CC(=O)O)c1ccc(OCC2CCCCC23CCCCC3)cc1 (mixture of isomers) [Example 72, (3S)-3-[4-(spiro[5.5]undec-1-ylmethoxy)-phenyl]-hex-4-ynoic acid] |
| 6.00 to 7.00 | CC#C[C@@H](CC(=O)O)c1ccc(OCC2CCC3(CCCC3)CC2)cc1 [Example 22, (S)-3-[4-(spiro[4.5]dec-8-ylmethoxy)-phenyl]-hex-4-ynoic acid] |
| 6.00 to 7.00 | CC#C[C@@H](CC(=O)O)c1ccc(OCC2=CCC3(CCCC3)C2)cc1 [Example 11, (S)-3-[4-(spiro[4.4]non-2-en-2-ylmethoxy)-phenyl]-hex-4-ynoic acid] |
| ≤ 5.00 | O=C(O)CCc1ccc(OC2CCCC3(CCCCC3)C2)cc1 (racemic) [Example 61, 3-[4-(spiro[5.5]undec-2-yloxy)-phenyl]-propionic acid] |
| 5.00 to 6.00 | O=C(O)CC(CO)c1ccc(OCC2CCCC3(CCCCC3)C2)cc1 (racemic) [Example 69, 4-hydroxy-3-[4-(spiro[5.5]undec-2-ylmethoxy)-phenyl]-butyric acid] |
| 5.00 to 6.00 | O=C(O)CCc1ccc(OCC2CCCC3(CCCCC3)C2)cc1 (single isomer, unassigned) [Example 88, 3-[4-(spiro[5.5]undec-2-ylmethoxy)-phenyl]-propionic acid (chiral: A)] |
| 6.00 to 7.00 | CC#C[C@@H](CC(=O)O)c1ccc(OCC2=CCCC3(CCCC3)C2)cc1 [Example 6, (S)-3-[4-(spiro[4.5]dec-7-en-7-ylmethoxy)-phenyl]-hex-4-ynoic acid sodium salt] |
| 6.00 to 7.00 | CCCOC(CC(=O)O)c1ccc(OCC2CCCC3(CCCCC3)C2)cc1 (racemic) [Example 83, 3-propoxy-3-[4-(spiro[5.5]undec-2-ylmethoxy)-phenyl]-propionic acid] |
| 6.00 to 7.00 | CC1=CCCC(C)C12CCCC(COc1ccc(CCC(=O)O)cc1)C2 (racemic) [Example 50, 3-[4-(7,11-dimethyl-spiro[5.5]undec-7-en-2-ylmethoxy)-phenyl]-propionic acid] |
| 6.00 to 7.00 | CC#C[C@@H](CC(=O)O)c1ccc(OCC2=CCC3(CCCCC3)C2)cc1 [Example 14, (S)-3-[4-(spiro[4.5]dec-2-en-2-ylmethoxy)-phenyl]-hex-4-ynoic acid sodium salt] |
| 7.00 to 8.00 | Cn1nnnc1C(CC(=O)O)c1ccc(OCC2CCCC3(CCCCC3)C2)cc1 (racemic) [Example 40, 3-(1-methyl-1H-tetrazol-5-yl)-3-[4-(spiro[5.5]undec-2-ylmethoxy)-phenyl]-propionic acid] |
| 6.00 to 7.00 | O=C(O)CCc1ccc(OCC2=CC3(CCCC3)CCC2)c(O)c1 [Example 110, 3-[3-hydroxy-4-(spiro[4.5]dec-6-en-7-ylmethoxy)-phenyl]-propionic acid] |
| 5.00 to 6.00 | CC#C[C@H](c1ccc(OCC2CCCC3(CCCCC3)C2)cc1)C1SC(=O)NC1=O (mixture of isomers) [Example 68, 5-{(1S)-1-[4-(spiro[5.5]undec-2-ylmethoxy)-phenyl]-but-2-ynyl}-thiazolidine-2,4-dione] |
| ≤ 5.00 | O=C(O)CCc1ccc(OCC2CCC3(CCCCCC3)C2)cc1 (racemic) [Example 21, 3-[4-(spiro[4.6]undec-2-ylmethoxy)-phenyl]-propionic acid] |
| 6.00 to 7.00 | CC#C[C@@H](CC(=O)O)c1ccc(OCC2=CCC3(CCCC3)CC2)cc1 [Example 25, (S)-3-[4-(spiro[4.5]dec-7-en-8-ylmethoxy)-phenyl]-hex-4-ynoic acid] |
| 6.00 to 7.00 | CC#CC(CC(=O)O)c1ccc(OCC2CCCC3(CCCCC3)C2)cc1 (racemic) [Example 47, 3-[4-(spiro[5.5]undec-2-ylmethoxy)-phenyl]-hex-4-ynoic acid] |
